Data as given in patent US20240317731A1, “AMINOTHIAZOLE COMPOUNDS AS C-KIT INHIBITORS” (Theseus Pharmaceuticals, Inc., priority 2021, published 2024).

Assays:
BAF3 KIT EX11 DEL/V654A = BAF3 KIT EX11 DEL/V654A (Homo sapiens, UniProt P10721, V654A, cells depend on it, form not given); assay: Ba/F3 KIT mutant viability assay (Cell Titer-Glo), EX11 DEL/V654A; assay type: cell-based; conditions: 72 hours
Procedure: (§1) KIT cDNAs were synthesized by GenScript and cloned into the pLVX-IRES-Puro vector (Clontech). Viral particles were produced by transfecting pLVX-IRES-puro vectors containing KIT mutant genes into HEK293 cells (Invitrogen) using the Trans-Lentiviral ORF Packaging Kit (Thermo Scientific). 48 hours post-transfection, virus-containing supernatants were harvested and incubated for another 48-72 hours with parental Ba/F3 cells (DSMZ) in the presence of 10 ng/ml IL-3 (R&D Systems). Transduced Ba/F3 cells were then selected by IL-3 withdrawal and puromycin (0.5-1 μg/mL, Invitrogen).
(§2) Cell lines (e.g., EX11DEL, EX11KEL/D816H, EX11DEL/T670I, and EX11DEL/V654A) were plated into 384 well plates using RPMI 1640 supplemented with 10% FBS at densities that produced linear growth and incubated at 37° C. in 5%(v/v) CO2. Cells were treated with eight concentrations of compound over a 4-fold dilution (10 uM to 0.61 nM) and viability was assessed using Cell Titer-Glo assay (Promega) after 72 hours. Data were plotted as percent viability relative to vehicle-treated cells. Dose-responses curves were generated and used to calculate IC50 values.

BAF3 KIT EX11 DEL/T670I = BAF3 KIT EX11 DEL/T670I (Homo sapiens, UniProt P10721, T670I, cells depend on it, form not given); assay: Ba/F3 KIT mutant viability assay (Cell Titer-Glo), EX11 DEL/T670I; assay type: cell-based; conditions: 72 hours
Procedure: as §1, §2

BAF3 KIT EX11 DEL/D816H = BAF3 KIT EX11 DEL/D816H (Homo sapiens, UniProt P10721, D816H, cells depend on it, form not given); assay: Ba/F3 KIT mutant viability assay (Cell Titer-Glo), EX11 DEL/D816H; assay type: cell-based; conditions: 72 hours
Procedure: as §1, §2

BAF3 KIT EX11 DEL = BAF3 KIT EX11 DEL (Homo sapiens, UniProt P10721, cells depend on it, form not given); assay: Ba/F3 KIT mutant viability assay (Cell Titer-Glo), EX11 DEL; assay type: cell-based; conditions: 72 hours
Procedure: as §1, §2

[1] = In vivo pharmacokinetic studies in non-human primates (monkeys); design: species or system monkey; conditions: male and female monkeys, oral
Procedure: Pharmacokinetic studies of Compound (1a) in non-human primates were also undertaken in male (FIG. 2A) and female (FIG. 2B) monkeys at two different doses (2 mg/kg and 4 mg/kg) via oral administration.

[2] = In vivo pharmacokinetic studies in rats; conditions: rat
Excerpt: For example, the pharmacokinetics of Compound (1a) has been studied. […] After repeat dosing for 10 days, increased AUC (area under the curve) were obtained with Compound (1a) at either dose (see FIG. 1).

Chain of BAF3 KIT EX11 DEL (P10721 with tags, fused parts or gaps DEL557-558): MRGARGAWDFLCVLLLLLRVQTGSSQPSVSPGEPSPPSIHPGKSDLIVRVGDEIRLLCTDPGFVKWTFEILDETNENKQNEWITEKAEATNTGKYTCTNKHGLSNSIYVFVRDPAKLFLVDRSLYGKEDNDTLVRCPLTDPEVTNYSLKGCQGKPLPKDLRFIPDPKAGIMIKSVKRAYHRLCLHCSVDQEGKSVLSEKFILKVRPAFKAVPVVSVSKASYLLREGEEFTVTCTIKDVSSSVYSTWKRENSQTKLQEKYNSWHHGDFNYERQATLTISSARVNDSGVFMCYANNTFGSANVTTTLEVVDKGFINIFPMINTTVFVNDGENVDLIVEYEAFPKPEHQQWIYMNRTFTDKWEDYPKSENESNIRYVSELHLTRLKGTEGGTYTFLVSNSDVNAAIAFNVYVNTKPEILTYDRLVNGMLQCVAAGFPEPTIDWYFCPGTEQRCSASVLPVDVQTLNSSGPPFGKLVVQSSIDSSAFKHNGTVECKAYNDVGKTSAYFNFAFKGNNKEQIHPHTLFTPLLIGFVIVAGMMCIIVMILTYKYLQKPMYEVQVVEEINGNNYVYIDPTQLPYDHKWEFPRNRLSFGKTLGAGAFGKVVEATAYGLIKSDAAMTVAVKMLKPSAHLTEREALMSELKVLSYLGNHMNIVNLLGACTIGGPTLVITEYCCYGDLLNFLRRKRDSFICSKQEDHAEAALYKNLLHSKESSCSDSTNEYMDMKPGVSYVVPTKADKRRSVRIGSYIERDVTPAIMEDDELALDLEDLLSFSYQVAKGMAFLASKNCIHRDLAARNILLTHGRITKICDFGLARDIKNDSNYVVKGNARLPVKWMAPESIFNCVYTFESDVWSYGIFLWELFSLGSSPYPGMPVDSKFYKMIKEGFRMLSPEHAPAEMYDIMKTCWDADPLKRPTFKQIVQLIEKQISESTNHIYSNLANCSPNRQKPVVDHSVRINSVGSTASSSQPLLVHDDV
Chain of BAF3 KIT EX11 DEL/D816H (P10721 with tags, fused parts or gaps DEL557-558/D816H, form open): as the sequence (P10721 with tags, fused parts or gaps DEL557-558) above, with D814H counted along it
Chain of BAF3 KIT EX11 DEL/T670I (P10721 with tags, fused parts or gaps DEL557-558/T670I, form open): as the sequence (P10721 with tags, fused parts or gaps DEL557-558) above, with T668I counted along it
Chain of BAF3 KIT EX11 DEL/V654A (P10721 with tags, fused parts or gaps DEL557-558/V654A, form open): as the sequence (P10721 with tags, fused parts or gaps DEL557-558) above, with V652A counted along it

| SMILES | GI50 (BAF3 KIT EX11 DEL/V654A) | GI50 (BAF3 KIT EX11 DEL/T670I) | GI50 (BAF3 KIT EX11 DEL/D816H) | GI50 (BAF3 KIT EX11 DEL) | curve shapes and AUC, Day 1 versus Day 10 ([1]; 2 mg/kg and 4 mg/kg (either dose), FIG. 2A/2B) | exposure after repeat dosing ([1]; 2 mg/kg and 4 mg/kg, Day 10 versus Day 1) | AUC (area under the curve) after repeat dosing ([2]; oral, 10 mg/kg and 30 mg/kg (either dose), repeat dosing for 10 days, FIG. 1) | average observed plasma concentration (Cav) versus target exposure ([2]; oral, 30 mg/kg (the latter dose)) | clearance (Cl) ([2]; single dose) | volume of distribution (Vd) ([2]; single dose) |
| --- | --- | --- | --- | --- | --- | --- | --- | --- | --- | --- |
| Cc1ccc(NC(=O)c2cc(C(F)(F)F)ccn2)cc1C#Cc1cnc(NC(=O)N2CC[C@@H](N(C)C)C2)s1 [Compound 1b] | 0.01 to 0.05 µM | 0.01 to 0.05 µM | 0.01 to 0.05 µM | < 0.01 µM |  |  |  |  |  |  |
| Cc1ccc(NC(=O)c2cc(C(F)(F)F)ccn2)cc1C#Cc1cnc(NC(=O)N2CC(C)(O)C2)s1 [Compound 4] | 0.01 to 0.05 µM | 0.01 to 0.05 µM | 0.01 to 0.05 µM | < 0.01 µM |  |  |  |  |  |  |
| Cc1ccc(NC(=O)c2cc(C(F)(F)F)ccn2)cc1C#Cc1cnc(NC(=O)N2CC(O)C2)s1 [Compound 3] | 0.01 to 0.05 µM | 0.01 to 0.05 µM | 0.01 to 0.05 µM | < 0.01 µM |  |  |  |  |  |  |
| CN[C@H]1CCN(C(=O)Nc2ncc(C#Cc3cc(NC(=O)c4cc(C(F)(F)F)ccn4)ccc3C)s2)C1 [Compound 5a] | 0.01 to 0.05 µM | 0.05 to 0.1 µM | 0.01 to 0.05 µM | < 0.01 µM |  |  |  |  |  |  |
| Cc1ccc(NC(=O)c2cc(C(F)(F)F)ccn2)cc1C#Cc1cnc(NC(=O)N2CC[C@H](O)C2)s1 [Compound 2b] | < 0.01 µM | < 0.01 µM | < 0.01 µM | < 0.01 µM |  |  |  |  |  |  |
| Cc1ccc(NC(=O)c2cc(C(F)(F)F)ccn2)cc1C#Cc1cnc(NC(=O)N2CC[C@@H](O)C2)s1 [Compound 2a] | < 0.01 µM | < 0.01 µM | < 0.01 µM | < 0.01 µM |  |  |  |  |  |  |
| Cc1ccc(NC(=O)c2cc(C(F)(F)F)ccn2)cc1C#Cc1cnc(NC(=O)N2CC[C@H](N(C)C)C2)s1 [Compound 1a, N-[3-[2-[2-[[(3S)-3-(dimethylamino)pyrrolidine-1-carbonyl]amino]thiazol-5-yl]ethynyl]-4-methyl-phenyl]-4-(trifluoromethyl)pyridine-2-carboxamide] | 0.01 to 0.05 µM | 0.01 to 0.05 µM | 0.01 to 0.05 µM | < 0.01 µM | similar | no significant loss of exposure | increased | exceeded target exposure required for achieving desired antitumor efficacy | high | high |
